What follows are compounds tested against POLRMT (Homo sapiens (Human), UniProt O00411) (assay: homogeneous TR-FRET assay of mitochondrial transcription (inhibition of POLRMT)). Conditions: 7.5 nM POLRMT, 15 nM TFB2M, 30 nM TFAM, 0.5 nM DNA template, 500 μM NTPs, 37° C. for 60 minutes.
Chain of POLRMT (O00411 42-1230): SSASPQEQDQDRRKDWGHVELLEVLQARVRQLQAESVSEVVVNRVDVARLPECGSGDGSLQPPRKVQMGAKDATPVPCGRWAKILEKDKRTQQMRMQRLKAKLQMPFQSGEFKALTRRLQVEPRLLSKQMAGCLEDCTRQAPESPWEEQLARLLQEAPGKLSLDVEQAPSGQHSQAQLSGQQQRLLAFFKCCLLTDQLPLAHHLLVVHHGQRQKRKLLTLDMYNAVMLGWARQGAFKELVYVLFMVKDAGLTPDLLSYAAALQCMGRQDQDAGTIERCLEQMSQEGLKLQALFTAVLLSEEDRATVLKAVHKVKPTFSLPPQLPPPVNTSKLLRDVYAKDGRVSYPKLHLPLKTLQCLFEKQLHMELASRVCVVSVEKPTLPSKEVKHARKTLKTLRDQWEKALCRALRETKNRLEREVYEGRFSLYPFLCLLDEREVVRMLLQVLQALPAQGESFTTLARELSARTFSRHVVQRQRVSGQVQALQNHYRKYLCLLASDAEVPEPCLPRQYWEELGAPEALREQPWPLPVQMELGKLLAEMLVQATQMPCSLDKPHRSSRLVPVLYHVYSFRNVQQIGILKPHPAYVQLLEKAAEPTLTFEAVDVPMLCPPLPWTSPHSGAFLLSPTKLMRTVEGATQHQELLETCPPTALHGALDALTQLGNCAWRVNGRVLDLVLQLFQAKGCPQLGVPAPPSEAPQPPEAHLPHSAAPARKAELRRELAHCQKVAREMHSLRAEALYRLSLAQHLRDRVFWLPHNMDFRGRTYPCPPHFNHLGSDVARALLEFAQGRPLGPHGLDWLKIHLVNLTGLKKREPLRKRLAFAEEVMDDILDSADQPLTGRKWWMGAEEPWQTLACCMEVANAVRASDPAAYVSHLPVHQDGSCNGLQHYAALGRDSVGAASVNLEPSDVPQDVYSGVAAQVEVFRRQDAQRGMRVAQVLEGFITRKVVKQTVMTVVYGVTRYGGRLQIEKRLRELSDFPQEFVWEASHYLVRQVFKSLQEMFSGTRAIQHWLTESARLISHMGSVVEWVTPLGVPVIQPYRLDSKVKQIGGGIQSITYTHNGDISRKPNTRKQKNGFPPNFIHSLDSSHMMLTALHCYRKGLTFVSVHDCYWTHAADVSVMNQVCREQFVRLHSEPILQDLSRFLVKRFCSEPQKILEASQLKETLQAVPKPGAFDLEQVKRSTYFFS
Type: biochemical
Protocol: The ability of some compounds of the present invention to inhibit POLRMT were determined in a homogeneous TR-FRET Assay using high-throughput screening in a 384-well plate format. […] Detection of the product is facilitated by hybridization of two DNA-oligonucleotide probes to specific and adjacent sequences within the RNA product sequence. Upon annealing of the probes, two fluorophores are coupled directly to an acceptor nucleotide probe (ATTO647, 5′), or introduced via a coupled streptavidin with a biotinylated donor nucleotide probe (Europium cryptate) that is brought into sufficient proximity to serve as a fluorescence-donor-acceptor pair. Thus, a FRET signal at 665 nm is generated upon excitation at 340 nm.
The DNA template is restriction linearized proximal to the promotor 3′-end (pUC-LSP). […] No nucleotide triphosphate mix is added to negative control samples. Microplates with compounds to be tested in the assay are prepared from 10 mM compound stocks in 100% DMSO, equal amounts of DMSO without any compound are added to positive control and negative control samples.
During the incubation, a mix of the detection reagents is prepared in a buffer such that the enzymatic reaction is terminated due to chelating of Mg-ions and increased ionic strength, containing 50 mM Tris-HCl (pH 7.5), 700 mM NaCl, 20 mM EDTA, and 0.01% (w/v) Tween-20. Europium-streptavidin is pre-incubated with a 200-fold molar excess of a random sequence oligonucleotide to block unspecific binding of oligo, for two hours at ambient temperature in the dark. Afterwards, the blocked Europium-streptavidin is kept on ice until use.
At the end of the enzymatic reaction time, 5 μL detection oligo mix in the detection buffer is added, and assay plates are mixed and kept at ambient temperature for one hour, protected from light. The concentration of the Acceptor nucleotide oligo (e.g., ATTO647N-5′-[…]-3′) and Donor nucleotide oligo (e.g., bio-5′-[…](-bio)[…]-bio-3′) in each assay well is 1 nM, and 3 nM, respectively.
After incubation with oligo mix, 5 μL of pre-blocked Europium-streptavidin reagent is dispensed to each assay well, assay plates are again mixed and kept at ambient temperature for one hour, protected from light.
The generated signal is measured with BMG Pherastar microtiter plate reader with a TRF light unit, using excitation at 340 nm, an integration time of 200 μs, and a delay time of 100 μs, before detection at 620 nm and 665 nm. The ratio of donor- and acceptor-fluorescence is used as a measure of the generated transcript product (i.e. enzymatic activity).
With `CN(Cc1ccc2c(-c3ccc(F)cc3Cl)cc(=O)oc2c1)C(=O)N1CCCCC1` [Example 05, N-((4-(2-chloro-4-fluorophenyl)-2-oxo-2H-chromen-7-yl)methyl)-N-methylpiperidine-1-carboxamide] the IC50 was 4000 nM. In the case of `CN(C)C(=O)N(C)Cc1ccc2c(-c3ccc(F)cc3Cl)cc(=O)oc2c1` [Example 06, 1-((4-(2-chloro-4-fluorophenyl)-2-oxo-2H-chromen-7-yl)methyl)-1,3,3-trimethylurea], the IC50 is reported as 3000 nM. `CCOC(=O)[C@H]1CCCN(C(=O)N(C)Cc2ccc3c(-c4ccc(F)cc4Cl)cc(=O)oc3c2)C1` [Example 07, ethyl (S)-1-(((4-(2-chloro-4-fluorophenyl)-2-oxo-2H-chromen-7-yl)methyl)(methyl)carbamoyl)piperidine-3-carboxylate] gave an IC50 of 7000 nM. With `CN(Cc1ccc2c(-c3ccc(F)cc3Cl)cc(=O)oc2c1)C(=O)N1CCC[C@H](C(=O)O)C1` [Example 08, (S)-1-(((4-(2-chloro-4-fluorophenyl)-2-oxo-2H-chromen-7-yl)methyl)(methyl)carbamoyl)piperidine-3-carboxylic acid] the IC50 was 1000 nM. In the case of `Cc1ccccc1-c1cc(=O)oc2cc(CO)ccc12` [Example 09, 7-(hydroxymethyl)-4-(o-tolyl)-2H-chromen-2-one], the IC50 is reported as 10000 nM. For `COCc1ccc2c(-c3ccccc3C)cc(=O)oc2c1` [Example 10, 7-(methoxymethyl)-4-(o-tolyl)-2H-chromen-2-one], the IC50 was 400 nM. `Nc1ccc2c(-c3ccc(F)cc3Cl)cc(=O)oc2c1` [Example 11, 7-amino-4-(2-chloro-4-fluorophenyl)-2H-chromen-2-one] was tested, and the IC50 was 24000 nM. For `Cc1cc(O)c2c(-c3ccc(F)cc3)cc(=O)oc2c1` [Example 12, 4-(4-fluorophenyl)-5-hydroxy-7-methyl-2H-chromen-2-one], the IC50 was > 100000 nM. In the case of `O=c1cc(-c2ccc(F)cc2Cl)c2ccc(CO)cc2o1` [Example 13, 4-(2-chloro-4-fluorophenyl)-7-(hydroxymethyl)-2H-chromen-2-one], the IC50 is reported as 10000 nM. For `CCOC(=O)/C(C)=C/c1ccc2c(-c3ccc(F)cc3Cl)cc(=O)oc2c1` [Example 14, ethyl (E)-3-(4-(2-chloro-4-fluorophenyl)-2-oxo-2H-chromen-7-yl)-2-methylacrylate], the IC50 was 18000 nM. With `COC(=O)C(C)Cc1ccc2c(-c3ccc(F)cc3Cl)cc(=O)oc2c1` (centres unmarked) [Example 15, methyl 3-(4-(2-chloro-4-fluorophenyl)-2-oxo-2H-chromen-7-yl)-2-methylpropanoate] the IC50 was 2000 nM. `COCc1ccc2c(-c3ccc(F)cc3Cl)cc(=O)oc2c1` [Example 16, 4-(2-chloro-4-fluorophenyl)-7-(methoxymethyl)-2H-chromen-2-one] showed an IC50 of 1000 nM. Compound `C[C@@H](Cc1ccc2c(-c3ccc(F)cc3Cl)cc(=O)oc2c1)C(=O)N1CCCCC1` [Example 18, (S)-4-(2-chloro-4-fluorophenyl)-7-(2-methyl-3-oxo-3-(piperidin-1-yl)propyl)-2H-chromen-2-one] has an IC50 of 200 nM. For `C[C@H](Cc1ccc2c(-c3ccc(F)cc3Cl)cc(=O)oc2c1)C(=O)N1CCCCC1` [Example 19, (R)-4-(2-chloro-4-fluorophenyl)-7-(2-methyl-3-oxo-3-(piperidin-1-yl)propyl)-2H-chromen-2-one], the IC50 was 24000 nM. `C[C@@H](Cc1ccc2c(-c3ccc(F)cc3Cl)cc(=O)oc2c1)C(=O)N(C)C` [Example 20, (S)-3-(4-(2-chloro-4-fluorophenyl)-2-oxo-2H-chromen-7-yl)-N,N,2-trimethylpropanamide] showed an IC50 of 800 nM. Work on `C[C@H](Cc1ccc2c(-c3ccc(F)cc3Cl)cc(=O)oc2c1)C(=O)N(C)C` [Example 21, (R)-3-(4-(2-chloro-4-fluorophenyl)-2-oxo-2H-chromen-7-yl)-N,N,2-trimethylpropanamide] yielded an IC50 of 49000 nM. For `CCCNC(=O)c1ccc2c(-c3ccc(F)cc3Cl)cc(=O)oc2c1` [Example 22, 4-(2-chloro-4-fluorophenyl)-2-oxo-N-propyl-2H-chromene-7-carboxamide], the IC50 was 25000 nM. Compound `CCN(C)C(=O)c1ccc2c(-c3ccc(F)cc3Cl)cc(=O)oc2c1` [Example 23, 4-(2-chloro-4-fluorophenyl)-N-ethyl-N-methyl-2-oxo-2H-chromene-7-carboxamide] has an IC50 of 19000 nM. In the case of `CNc1ccc2c(-c3ccc(F)cc3Cl)cc(=O)oc2c1` [Example 25, 4-(2-chloro-4-fluorophenyl)-7-(methylamino)-2H-chromen-2-one], the IC50 is reported as 400 nM. For `CCOC(=O)[C@@H](C)Nc1ccc2c(-c3ccc(F)cc3Cl)cc(=O)oc2c1` [Example 26, ethyl (4-(2-chloro-4-fluorophenyl)-2-oxo-2H-chromen-7-yl)-D-alaninate], the IC50 was 400 nM. `C[C@@H](Nc1ccc2c(-c3ccc(F)cc3Cl)cc(=O)oc2c1)C(=O)N1CCCCC1` [Example 27, (R)-4-(2-chloro-4-fluorophenyl)-7-((1-oxo-1-(piperidin-1-yl)propan-2-yl)amino)-2H-chromen-2-one] gave an IC50 of 100 nM. `C[C@@H](Nc1ccc2c(-c3ccc(F)cc3Cl)cc(=O)oc2c1)C(=O)N(C)C` [Example 28, (R)-2-((4-(2-chloro-4-fluorophenyl)-2-oxo-2H-chromen-7-yl)amino)-N,N-dimethylpropanamide] was tested, and the IC50 was 800 nM. For `COc1ccccc1-c1cc(=O)oc2cc(NC(C)=O)ccc12` [Example 29, N-(4-(2-methoxyphenyl)-2-oxo-2H-chromen-7-yl)acetamide], the IC50 was > 100000 nM. `COc1ccccc1-c1cc(=O)oc2cc(NC(=O)C(C)C)ccc12` [Example 30, N-(4-(2-methoxyphenyl)-2-oxo-2H-chromen-7-yl) isobutyramide] was tested, and the IC50 was > 100000 nM. `CN(C)c1ccc2c(-c3ccc(F)cc3Cl)cc(=O)oc2c1` [Example 31, 4-(2-chloro-4-fluorophenyl)-7-(dimethylamino)-2H-chromen-2-one] showed an IC50 of 400 nM. `CC(=O)Nc1ccc2c(-c3ccccc3C)cc(=O)oc2c1` [Example 32, N-(2-oxo-4-(o-tolyl)-2H-chromen-7-yl)acetamide] gave an IC50 of 400 nM. In the case of `Cc1ccccc1-c1cc(=O)oc2cc(NC(=O)C(C)C)ccc12` [Example 33, N-(2-oxo-4-(o-tolyl)-2H-chromen-7-yl) isobutyramide], the IC50 is reported as 300 nM. In the case of `Cc1ccccc1-c1cc(=O)oc2cc(C(=O)N(C)C)ccc12` [Example 34, N,N-dimethyl-2-oxo-4-(o-tolyl)-2H-chromene-7-carboxamide], the IC50 is reported as 2000 nM. For `Cc1ccccc1-c1cc(=O)oc2cc(C(=O)Nc3ccccc3)ccc12` [Example 35, 2-oxo-N-phenyl-4-(o-tolyl)-2H-chromene-7-carboxamide], the IC50 was 2000 nM. `Cc1ccccc1-c1cc(=O)oc2cc(C(=O)NC3CCCC3)ccc12` [Example 36, N-cyclopentyl-2-oxo-4-(o-tolyl)-2H-chromene-7-carboxamide] showed an IC50 of 2000 nM. For `Cc1ccccc1-c1cc(=O)oc2cc(C(=O)N3CCCCC3)ccc12` [Example 37, 7-(piperidine-1-carbonyl)-4-(o-tolyl)-2H-chromen-2-one], the IC50 was 1000 nM. Compound `O=C(OCc1ccc2c(-c3ccc(F)cc3Cl)cc(=O)oc2c1)N1CCCCC1` [Example 38, (4-(2-chloro-4-fluorophenyl)-2-oxo-2H-chromen-7-yl)methyl piperidine-1-carboxylate] has an IC50 of 600 nM. Compound `Cc1ccc2c(-c3ccccc3C)cc(=O)oc2c1` [Example 39, 7-methyl-4-(o-tolyl)-2H-chromen-2-one] has an IC50 of 700 nM. Work on `CC(O)c1ccc2c(-c3ccc(F)cc3Cl)cc(=O)oc2c1` (centres unmarked) [Example 40, 4-(2-chloro-4-fluorophenyl)-7-(1-hydroxyethyl)-2H-chromen-2-one] yielded an IC50 of 2000 nM. With `Cc1ccccc1-c1cc(=O)oc2cc(C#N)ccc12` [Example 43, 2-oxo-4-(o-tolyl)-2H-chromene-7-carbonitrile] the IC50 was 13000 nM. `CC(=O)N(C)c1ccc2c(-c3ccccc3C)cc(=O)oc2c1` [Example 44, N-methyl-N-(2-oxo-4-(o-tolyl)-2H-chromen-7-yl)acetamide] showed an IC50 of 12000 nM. In the case of `C[C@H](C(=O)N1CCCCC1)N(C)c1ccc2c(-c3ccc(F)cc3Cl)cc(=O)oc2c1` [Example 45, (R)-4-(2-chloro-4-fluorophenyl)-7-(methyl(1-oxo-1-(piperidin-1-yl)propan-2-yl)amino)-2H-chromen-2-one], the IC50 is reported as 50 nM. `C[C@H](C(=O)N(C)C)N(C)c1ccc2c(-c3ccc(F)cc3Cl)cc(=O)oc2c1` [Example 46, (R)-2-((4-(2-chloro-4-fluorophenyl)-2-oxo-2H-chromen-7-yl)(methyl)amino)-N,N-dimethylpropanamide] gave an IC50 of 50 nM.

From US20250326732A1 (Pretzel Therapeutics, Inc., priority 2021, published 2025)
